The values below are quoted from earlier work in US20080200527A1, “Cannabinoid Receptor Modulators” (Carex SA, priority 2005, published 2008).

Molecules are shown by their SMILES.

In the data set the test system is absorption of dietary fat. As to conditions: in vivo.

Regarding `CCCCCCCCCCC[C@@H](C[C@@H]1OC(=O)[C@H]1CCCCCC)OC(=O)[C@H](CC(C)C)NC=O` [orlistat], the “block of the absorption of dietary fat” value is “up to 30%”.
